# Entries after “also recorded” stand apart in the source; their conditions may differ.
# Experiments:
# HSP70 [1] = test: HSP70 protein boosting in HL-1 cardiomyocytes after mild heat shock (Western blot); type: cell-based, mouse; design: key to HSP boosting HL-1 cardiomyocytes Protein HSP70: 0 = no induction HSP levels; + = 2-10-fold induction; ++ = 10-30-fold induction; +++ = > 30-fold induction; conditions: mild heat shock 44°C 10 min, then compound 10 μM for 6 hours; Western blot
# Procedure: HL-1 atrial myocytes, a cell line derived from adult mouse atria were obtained from Dr. William Claycomb (Louisiana State University, New Orleans, La., USA). The myocytes were maintained in Complete Claycomb Medium (JRH, UK) supplemented with 100 μM norepinephrine stock (consisting of 10 mM norepinephrine (Sigma, The Netherlands) dissolved in 0.3 mM L-ascorbic acid (Sigma)), 4 mM L-glutamine (Gibco, The Netherlands) and 10% FBS (Sigma). The myocytes were cultured in flasks coated with 0.02% gelatin (Sigma), in a 5% CO2 atmosphere at 37° C.
# HL-1 cardiomyocytes were subjected to a mild heat shock of 44° C. for 10 minutes. After a recovery of 10 minutes (37 degrees 5% CO2), compounds were added in a final concentration of 10 μM (dissolved in DMSO, final concentration 0.1%). To control myocytes, 0.1% DMSO was added. After six hours the cells were lysed in RIPA buffer and used for Western blotting as described previously.^3, 10
# (§1) Western-blot analysis was performed as described previously^3, 10. Equal amount of protein in SDS-PAGE sample buffer was sonicated before separation on 10% PAA-SDS gels. After transfer to nitrocellulose membranes (Stratagene, The Netherlands), membranes were incubated with primary antibodies against HSP25 (Stressgen, The Netherlands, SPA-801, 1:1000), HSP27 (Stressgen, SPA-800, 1:1000), HSP70 (Stressgen, SPA-810, 1:1000), GAPDH (Affinity Reagents, The Netherlands) or PARP (Santa Cruz, The Netherlands, sc-7150, 1:500). Horseradish peroxidase-conjugated anti-mouse or anti-rabbit (Santa-Cruz Biotechnology, The Netherlands) was used as secondary antibody. Signals were detected by the ECL-detection method (Amersham, The Netherlands) and quantified by densitometry using GeneTools software from Syngene (The Netherlands).
# Compounds were also screened for HSP70 boosting effects. Hereto, HL-1 cardiomyocytes were first subjected to a mild heat shock which activates the Heat Shock Factor. After the mild heat shock, compound (10 μM) was added to the medium of HL-1 cardiomyocytes for 6 hours, followed by determination of the HSP70 amount.
# [2] = tested on: MCF-7 breast cancer cells; test: MCF-7 cell death, ratio death/living cells (trypan blue); type: cell-based, human; design: key to Cell Death MCF-7 cancer cells Death/living 100 μM: 0 = no dead cells; + = P < 0.05; ++ = P < 0.01; +++ = P < 0.001; conditions: for Cell Death MCF-7 cancer cells Death/living 100 μM: 16-20 hours, trypan blue; for cell death in MCF-7: 10 μM, 16 hours
# Procedure: MCF-7 breast cancer cells were cultured in DMEM supplemented with 10% FCS. […] Ratio death and living cells was determined by using trypan blue staining of death cells. The cell pellets were lysed in RIPA buffer and used for Western blot analysis.
# Since we observed that some compounds aggravate tachypacing-induced contractile dysfunction, we next investigated if these compounds can induce programmed cell death in a human breast cancer cell-line MCF-7. […] In total 28 compounds were tested for cell death. […] GGA was used as a control as well as non-treated MCF-7 cells. […] The findings indicate that GGA-like compounds which aggravate heart failure can induce programmed cell death in MCF-7 breast cancer cell-line.
# HSP27 = HSP27 Western blot in MCF-7 cells; type: cell-based, human; design: key: + = P < 0.05; ++ = P < 0.01; +++ = P < 0.001; conditions: MCF-7 lysate, 16-20 hours
# Procedure: (§2) MCF-7 breast cancer cells were cultured in DMEM supplemented with 10% FCS. Test compounds were added to the medium in a final concentration of […] for 16-20 hours. Ratio death and living cells was determined by using trypan blue staining of death cells. The cell pellets were lysed in RIPA buffer and used for Western blot analysis.
# as §1
# HSP70 [3] = test: HSP70 Western blot in MCF-7 cells; type: cell-based, human; design: key: + = P < 0.05; ++ = P < 0.01; +++ = P < 0.001; conditions: MCF-7 lysate, 16-20 hours
# Procedure: as §2, §1
# PARP = PARP cleavage in MCF-7 cells (Western blot); type: cell-based, human; design: key to Cell Death MCF-7 cancer cells PARP: 0 = no dead cells; + = P < 0.05; ++ = P < 0.01; +++ = P < 0.001; conditions: for Cell Death MCF-7 cancer cells PARP: MCF-7 lysate, Western blot, 16-20 hours; for PARP cleavage, indicative of pro-apoptotic caspase activation: MCF-7, 10 μM, 16 hours
# Procedure: as §2, §1
# Since we observed that some compounds aggravate tachypacing-induced contractile dysfunction, we next investigated if these compounds can induce programmed cell death in a human breast cancer cell-line MCF-7. Hereto, MCF-7 cells were incubated for 16 hours with 10 μM of a test compound after which the number of death and living cells was determined. In total 28 compounds were tested for cell death. […] GGA was used as a control as well as non-treated MCF-7 cells. […] The findings indicate that GGA-like compounds which aggravate heart failure can induce programmed cell death in MCF-7 breast cancer cell-line.
SMILES,HSP boosting HL-1 cardiomyocytes Protein HSP70 (HSP70 [1]),Cell Death MCF-7 cancer cells Death/living 100 μM [2],Cell Death MCF-7 cancer cells HSP 27 (HSP27),Cell Death MCF-7 cancer cells HSP 70 (HSP70 [3]),Cell Death MCF-7 cancer cells PARP (PARP),cell death in MCF-7 [2],"PARP cleavage, indicative of pro-apoptotic caspase activation (PARP)"
CCOC(=O)CC(C(=O)CC/C=C(\C)CCC=C(C)C)C(=O)OCC (centres unmarked) [Compound 89],+ (+ = 2-10-fold induction),0,0,0,0,–,–
CC(C)=CCC/C(C)=C/CNC(=O)CS(C)(=O)=O [Compound 56],0,0,0,0,0,–,–
CC(C)=CCC/C(C)=C/CNC(=O)Nc1cccc(F)c1 [Compound 45],0,++ (++ = P < 0.01),0,–,++ (++ = P < 0.01),significant increase in cell death; also recorded: induce cell death,induced PARP cleavage
CCCC(=O)C(CC)C(=O)N(C/C=C(\C)CCC=C(C)C)C(=O)CCC (centres unmarked) [Compound 128],0,–,–,–,–,–,–
CCOC(=O)C(=O)NC/C=C(\C)CCC=C(C)C [Compound 97],0,–,–,–,–,–,–
CC(C)=CCC/C(C)=C/CCc1cc(C)n(CCO)n1 [Compound 35],0,–,–,–,–,–,–
CC(C)=CCC/C(C)=C/CCc1cc(C)nn1-c1ccccc1F [Compound 40],0,–,–,–,–,–,–
CCOC(=O)C(C/C=C(\C)CCC=C(C)C)C(C)=O (centres unmarked) [Compound 81],0,–,–,–,–,–,–
CC(C)=CCC/C(C)=C/CCc1cc(C)n(CCC#N)n1 [Compound 34],0,–,–,–,–,–,–
CCCC(=O)N(C/C=C(\C)CCC=C(C)C)C(=O)CCC [Compound 127],0,0,–,0,0,–,–
CC(C)=CCC/C(C)=C/Cc1c(O)c2ccccc2oc1=O [Compound 66],0,0,+ (+ = P < 0.05),++ (++ = P < 0.01),+ (+ = P < 0.05),–,induced PARP cleavage
CCOC(=O)C(=Cc1ccccc1)C(=O)CCC=C(C)CCC=C(C)C (mixture of isomers) [Compound 84],+ (+ = 2-10-fold induction),–,–,–,–,–,–
CC(C)=CCC/C(C)=C/CNC(=O)c1ccccc1O [Compound 101],0,++ (++ = P < 0.01),0,–,++ (++ = P < 0.01),significant increase in cell death; also recorded: induce cell death,induced PARP cleavage
CC(C)=CCC/C(C)=C/CCc1cc(C)n(C)n1 [Compound 33],+ (+ = 2-10-fold induction),–,–,–,–,–,–
CCCC(C(=O)CC/C=C(\C)CCC=C(C)C)C(=O)OCC (centres unmarked) [Compound 70],0,0,+++ (+++ = P < 0.001),++ (++ = P < 0.01),0,–,–
"CCOC(=O)CC(=O)CC/C=C(\C)CCC=C(C)C [Compound 21, (E)-Ethyl 7,11-dimethyl-3-oxododeca-6,10-dienoate]",0,–,–,–,–,–,–
CC(C)=CCC/C(C)=C/CCc1cc(O)nn1C [Compound 64],0,–,–,–,–,–,–
CC(C)=CCC/C(C)=C/CNS(=O)(=O)c1ccc(C)cc1 [Compound 53],+ (+ = 2-10-fold induction),–,–,–,–,–,–
CCOC(=O)CC(=O)NC/C=C(\C)CCC=C(C)C [Compound 98],0,0,++ (++ = P < 0.01),0,0,–,–
CCNC(=O)NC/C=C(\C)CCC=C(C)C [Compound 44],0,–,–,–,–,–,–
CCOC(=O)C(C)C(=O)CC/C=C(\C)CCC=C(C)C (centres unmarked) [Compound 22],0,–,–,–,–,–,–
CCCC(=O)NC/C=C(\C)CCC=C(C)C [Compound 91],+ (+ = 2-10-fold induction),–,–,–,–,–,–
CCOC(=O)C(C(=O)CC/C=C(\C)CCC=C(C)C)C(C)C(=O)O (centres unmarked) [Compound 82],0,–,–,–,–,–,–
CC(C)=CCC/C(C)=C/CCc1cc(C)nn1-c1ccc(C#N)cc1 [Compound 41],0,+ (+ = P < 0.05),+ (+ = P < 0.05),0,+ (+ = P < 0.05),significant increase in cell death; also recorded: induce cell death,induced PARP cleavage
CC(C)=CCC/C(C)=C/CCc1cc(O)nn1Cc1ccccc1 [Compound 65],0,++ (++ = P < 0.01),+++ (+++ = P < 0.001),++ (++ = P < 0.01),++ (++ = P < 0.01),significant increase in cell death; also recorded: induce cell death,induced PARP cleavage
CCOC(=O)C(CC(=O)O)C(=O)CC/C=C(\C)CCC=C(C)C (centres unmarked) [Compound 78],0,0,++ (++ = P < 0.01),0,+ (+ = P < 0.05),–,induced PARP cleavage
CC(=O)NC/C=C(\C)CCC=C(C)C [Compound 43],0,–,–,–,–,–,–
CCC(=O)N(C/C=C(\C)CCC=C(C)C)C(=O)CC [Compound 103],0,0,0,0,0,–,–
CCCCCC(C(=O)CC/C=C(\C)CCC=C(C)C)C(=O)OCC (centres unmarked) [Compound 24],0,–,–,–,–,–,–
CC(C)=CCC/C(C)=C/CCc1cc(C)nn1-c1ccc(F)cc1 [Compound 39],0,0,+ (+ = P < 0.05),0,0,–,–
